According to patent US20210267944A1 (BioXcel Therapeutics, Inc., priority 2018, published 2021):
“And” between values parts separate entries of the source, which are not always exact repeats. Equal values may be shown once. Where a name gives a salt, the structure may show the parent alone. Read-outs that look alike come from different tables or passages of the source.

Assays:
[1] = for Plasma concentrations: individual opioid withdrawal patients, IV infusion
[2] = test system: subjects suffering from schizophrenia; settings: for RASS values after infusion start: schizophrenia patients, per patient
[3] = test system: agitated subjects with senile dementia of Alzheimer's type; settings: human, in vivo
Experimental: Clinical assessments of cognitive functioning, alertness/awareness, balance and reaction time were performed prior to the IV infusion, at the end of infusion until the participant had reached their baseline parameters or, in the judgment of the principal investigator, the participant had reached a stable and acceptable level of arousal.
Time period at which clinical assessment of cognitive functioning, alertness/awareness, balance, and reaction time persist after drowsiness has resolved was assessed. Cognitive functioning, alertness/awareness, balance, and reaction time reached to their baseline level within around 45 minutes after drowsiness was resolved/recovered (see Table 7).

[4] = test system: agitated subjects with senile dementia of Alzheimer's type; settings: for RASS score: per subject
Experimental: Clinical evaluation was performed as follows. Patients were screened up to 4 weeks prior to randomization. After obtaining the written informed consent from subjects, subjects were allowed to participate in the study related screening activities. Screening activities included clinical laboratory tests, physical examination, ECG, etc. After completion of all screening related activities, the eligible subjects [male and female subjects 55 to 75 years of age; known cases of mild probable Alzheimer's disease (SDAT) in accordance with NINCDS/ADRDA criteria for diagnosis of Alzheimer's disease with a Mini-Mental State Score of between 20 to 24; RASS score of +1 or +2 on the Day −1 and prior to drug administration on Day 1] were randomized in the study (treatment allocation 5:2). Subjects were housed in the clinic from Day −1 (preferably in the afternoon or evening) to end of study. Additional housing was allowed performed based on the investigator's discretion.
Study drug IV infusion was to be stopped at any time if any of the following occurred: • There was more than 20 mm Hg decrease in systolic or diastolic blood pressure. • There was an isolated drop in Systolic BP<100 mm of Hg. • There was an isolated drop Diastolic BP<60 mm of Hg. • There was a decrease in heart rate of 20 beats per minute or a drop below 50 beats per minute. • Attainment of a RASS of −1 at the end of each 30 minutes infusion period.
All raters were trained in the use of the RASS scale.
Once the participant was drowsy but able to respond to verbal stimulation, the infusion was stopped, and time was recorded.

## Cc1cccc([C@H](C)c2cnc[nH]2)c1C [dexmedetomidine hydrochloride]
[1]; Day 1 (printed Day −1), 00:00 Hr
  Plasma concentrations: BLQ
[1]; Day 2 (printed Day −2), 00:00 Hr
  Plasma concentrations: BLQ
[1]; Day 2 (printed Day −2), 01:00 Hr
  Plasma concentrations: 54.81 picograms/ml and 97.92 picograms/ml and 119.71 picograms/ml
[1]; Opioid withdrawal Study
  Plasma concentration achieved at efficacious doses: 0.011 to 0.406 ng/mL
[2]; Schizophrenia Study
  Efficacy (Primary/secondary end points): subjects reaching RASS-1: 9/10 RASS-1
[2]; Schizophrenia Study, continuous infusion
  Range of efficacious dose of IV dexmedetomidine hydrochloride: 0.2 to 0.4 µg/kg/h
[2]; schizophrenia
  patients in the treatment arm who achieved a RASS score of at least −1: 9 out of 10
[2]; infusion 15 minutes
  RASS values after infusion start: −2 and −1
[2]; infusion 30 minutes
  RASS values after infusion start: 0
[2]; infusion 75 minutes
  RASS values after infusion start: −1
[2]; infusion 90 minutes
  RASS values after infusion start: 0
[2]; infusion […]
  RASS values after infusion start: 0
[2]; schizophrenic patients
  Mean infusion rate: 0.36 µg/kg/h
[3]
  Time for cognitive functioning, alertness/awareness, balance, reaction time to reach baseline after drowsiness: 10 min
  Time for cognitive functioning, alertness/awareness, balance, reaction time to reach baseline after drowsiness, Max: 90 min
  Time for cognitive functioning, alertness/awareness, balance, reaction time to reach baseline after drowsiness, Mean ± SD: 42.9 ± 27.36 min
  Time for cognitive functioning, alertness/awareness, balance, reaction time to reach baseline after drowsiness, Median: 45 min
  time for cognitive functioning, alertness/awareness, balance, reaction time to reach baseline level after drowsiness resolved: ≤ 45 min
[4]; Alzheimer's Study
  Efficacy (Primary/secondary end points): subjects reaching RASS-1: 7/10 RASS-1
[4]; Alzheimer's Study, continuous infusion
  Range of efficacious dose of IV dexmedetomidine hydrochloride: 0.2 to 0.5 µg/kg/h
[4]; SDAT
  time after infusion discontinuation at which subjects became alert and remained calm: around 30 minutes
[4]; SDAT patients
  IV infusion rate, range: 0.2 to 0.5 µg/kg/h
[4]; SDAT patients, 00:00 Hr, listed as Treatment
  RASS score: 2 (5×) and 1 (5×)
[4]; SDAT patients, 02:30 Hr
  RASS score: 1
[4]; SDAT, extent of exposure
  Total dose, range: 0.15 to 0.75 µg/kg
[4]; SDAT, n=7
  Time period for which a calming effect persisted after discontinuation of study drug: 5 min
  Time period for which a calming effect persisted after discontinuation of study drug, Max: 45 min
  Time period for which a calming effect persisted after discontinuation of study drug, Mean ± SD: 28.6 ± 15.74 min
  Time period for which a calming effect persisted after discontinuation of study drug, Median: 30 min
  optimal dose at which a RASS score of −1 was achieved, Max: 0.5 µg/kg/h
  optimal dose at which a RASS score of −1 was achieved, Mean ± Sd (mean infusion rate): 0.34 µg/kg/h
  optimal dose at which a RASS score of −1 was achieved, Median: 0.30 µg/kg/h
  optimal dose at which a RASS score of −1 was achieved, Min: 0.2 µg/kg/h
  optimal dose at which a RASS score of −1 was achieved, Mode: 0.30 µg/kg/h
[4]; SDAT, n=7, listed as Test
  optimal dose at which a RASS score of −1 was achieved, Mean ± Sd (mean infusion rate): 0.34 ± 0.098 µg/kg/h
[4]; SDAT, n=7, listed as dexmedetomidine
  optimal dose at which a RASS score of −1 was achieved, Mean ± Sd (mean infusion rate): 0.34 µg/kg/h
[4]; SDAT, out of 10 subjects
  subjects who achieved a RASS score of −1: 7
